Assay results as given in EP0540090A2, “Liquid cleaning compositions” (UNILEVER N.V., priority 1991, dated 1993).
Read-outs that look alike come from different tables or passages of the source.

Experiments:
[1] = Precursor solubility in the liquid phase (2:1 nonionic surfactant blend Vista NI and Synperonic A3), by GC (TAED) and HPLC (rest)
[2] = Storage stability of precursor and percarbonate in the non-aqueous liquid formulation of Example 1; conditions: Example 1 formulation, after storage for 8 weeks at ambient temperature
[3] = 2:1 nonionic surfactant combination (Vista NI and Synperonic A3), ambient temperature
[4] = 2:1 nonionic surfactant combination (Vista NI and Synperonic A3), ambient temperature, molar solubility multiplied by number of active groups

| stability precursor [2] [% **)] | % w/w dissolved [1, 3] [% w/w] | mmol% active groups dissolved [1, 4] [mmol%] | Compound | % w/w dissolved [1] [% w/w] | mmol% active groups dissolved [1] [mmol%] |
| --- | --- | --- | --- | --- | --- |
| – | – | – | 2-(N,N,N-trimethylammonium)ethyl sodium 4-sulphophenyl carbonate [Compound B] | <0.025 | <0.08 |
| 88 | <0.05 | <0.14 | C[N+](C)(C)Cc1ccc(C(=O)Oc2ccc(S(=O)(=O)[O-])cc2)cc1 [Compound A, 1-[4-(N,N,N-trimethylammoniummethyl)benzoyloxy] benzene-4-sulphonate] | – | – |
| – | <0.01 | <0.03 | C[N+](C)(C)c1ccc(C(=O)Oc2ccc(S(=O)(=O)[O-])cc2)cc1 [Compound E] | – | – |
